Entries after “also recorded” stand apart in the source; their conditions may differ. Like-named read-outs stand apart in the source and are kept apart here.
Experiments:
lipase [1] = type: biochemical, Pseudomonas fragi 22.39B; details: for Effect of metal ions on the enzyme (in words): summary statement
Method: Thus, the chemical and physical properties, by which the inventive novel lipase is characterized, are as described below. The activity of the enzyme has been determined by the PVA emulsion method proposed by Yamada, et al. and described in Journal of the Agricultural Chemical Society of Japan, volume 36, page 860 (1962) with some modifications if not mentioned otherwise, taking an amount of the enzyme liberating a micro- equivalent of a fatty acid for 1 minute as one unit (U) (see Japanese Patent Publication 56-28517).
The influence of metal ions on the enzymatic actvity was examined by keeping a 9:1 by volume mixture of a 5U/ml solution of the enzyme and a 10 mM solution of the metal ions at 25°C for 30 minutes followed by the determination of the residual activity of the enzyme in the solution. No calcium chloride was contained in the reaction mixture.

lipase [2] = assay: Substrate specificity: relative rate of decomposition of esters, oils and fats (shaking method); type: biochemical, Pseudomonas fragi 22.39B; details: for Relative rate of decomposition, %: ester as the substrate, triolein as the reference (100), shaking method, pH 9.0, 37°C, 30 minutes; for Activity of the enzyme for the decomposition of the substrate (in words): summary statement
From the text: The enzyme is active for the decomposition of the substrate, such as various kinds of esters and naturally occurring oils and fats. Tables 1-1 and 1-2 given below give the relative rate of decomposition of esters (Table 1-1) and naturally occurring oils and fats (Table 1-2) in % taking triolein and olive oil, respectively, as the reference.
Different from the above mentioned standard procedure of the PVA emulsion method, the results tabulated in Tables 1-1 and 1-2 were obtained by the shaking method according to the conditions and procedures described below.
The solution described above was taken in an Erlenmeyer flask of 100 ml capacity and shaken for 30 minutes in a thermostat at 37°C at a rate of 90 rpm along an 8-shaped line. After completion of the above mentioned reaction time, 20 ml of a 1:1 mixture of acetone and ethyl alcohol were added to the flask and the resultant solution was titrated within a length of time with a 0.05N aqueous solution of sodium hydroxide using phenol phthalein as the indicator.

lipase [3] = assay: Influence of surface active agents on the enzymatic activity (residual activity); type: biochemical, Pseudomonas fragi 22.39B; details: for Residual activity, %: 9:1 by volume mixture of 10 U/ml enzyme solution and 4% aqueous solution of surface active agent, 25°C, 30 minutes; for Effect of surface active agents on the enzyme (in words): summary statement
Method: Thus, the chemical and physical properties, by which the inventive novel lipase is characterized, are as described below.
Similarly, the influence of surface active agents on the enzymatic activity was examined by keeping a 9:1 by volume mixture of a 10 U/ml solution of the enzyme and a 4% aqueous solution of the surface active agent at 25°C for 30 minutes followed by the determination of the residual activity of the enzyme in the solution.

lipase [4] = details: Biochim. Biophys. Acta 488, 353-358 (1977); cited from earlier work
lipase [5] = details: J. Ferment. Technol. 49, 128 (1971); Japanese Patent Publication 50-25553; cited from earlier work
lipase [6] = details: J. Ferment. Technol. 49, 128 (1971); Japanese Patent Publication 50-25553; cited from earlier work; remark: listed apart in the source
lipase [7] = target: T1, lipase (Pseudomonas fragi, UniProt P08658); details: J. Gen. Microbiol. 48, 317-328 (1967); cited from earlier work
T1 sequence (P08658 1-293): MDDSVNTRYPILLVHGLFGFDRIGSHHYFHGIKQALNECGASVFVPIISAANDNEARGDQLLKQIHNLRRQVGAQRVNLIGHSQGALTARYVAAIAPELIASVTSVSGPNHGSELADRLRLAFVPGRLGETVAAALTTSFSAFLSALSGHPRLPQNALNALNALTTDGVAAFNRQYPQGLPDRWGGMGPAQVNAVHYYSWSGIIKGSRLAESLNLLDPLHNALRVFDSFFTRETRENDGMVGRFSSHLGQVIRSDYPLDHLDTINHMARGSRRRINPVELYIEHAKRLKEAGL

lipase [8] = target: lipase (Pseudomonas aeruginosa, UniProt P26876); details: Biochim. Biophys. Acta 206, 380-391 (1970); cited from earlier work
lipase (Pseudomonas aeruginosa, UniProt P26876), sequence (P26876 27-311): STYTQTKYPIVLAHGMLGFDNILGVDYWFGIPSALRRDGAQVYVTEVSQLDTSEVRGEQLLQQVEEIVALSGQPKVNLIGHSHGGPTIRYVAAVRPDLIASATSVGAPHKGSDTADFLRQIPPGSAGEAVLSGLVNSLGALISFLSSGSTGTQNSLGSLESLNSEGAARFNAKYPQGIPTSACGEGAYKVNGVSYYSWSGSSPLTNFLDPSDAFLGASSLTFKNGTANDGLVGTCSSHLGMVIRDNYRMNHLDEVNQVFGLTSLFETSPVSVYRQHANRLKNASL

lipase [9] = details: Biochim. Biophys. Acta 488, 353-358 (1977); cited from earlier work; remark: listed apart in the source
[10] = 9:1 by volume mixture of 5U/ml enzyme solution and 10 mM metal ion solution, 25°C, 30 minutes, no calcium chloride

[Cl][Ag] [AgCl]
Residual activity, % (lipase [1]; [10]): 93.6%

[Cl][Al]([Cl])[Cl] [AlCl3]
Residual activity, % (lipase [1]; [10]): 93.6%

[Ba+2].[Cl-].[Cl-] [BaCl2]
Residual activity, % (lipase [1]; [10]): 92.7%

CCCCCCCC/C=C\CCCCCCCC(=O)OCCCC [Butyl oleate]
Relative rate of decomposition, % (lipase [2]): 95% | Activity of the enzyme for the decomposition of the substrate (in words) (lipase [2]): Active; also recorded: good activity

[Ca+2].[Cl-].[Cl-] [CaCl2]
Residual activity, % (lipase [1]; [10]): 105.5%

CCCCCCCCCCCCCCCC[N+](C)(C)C.[Br-] [Cetyl trimethyl ammonium bromide]
Residual activity, % (lipase [3]): 12% | Effect of surface active agents on the enzyme (in words) (lipase [3]): deactivated

[Cl-].[Cl-].[Co+2] [CoCl2]
Residual activity, % (lipase [1]; [10]): 86.6%

[Cl][Cu][Cl] [CuCl2]
Residual activity, % (lipase [1]; [10]): 90.8%

CCCCCCCCCCCC[N+](C)(C)C.[Cl-] [Dodecyl trimethyl ammonium chloride]
Residual activity, % (lipase [3]): 35%

CCCCCCCC/C=C\CCCCCCCC(=O)OCC [Ethyl oleate]
Relative rate of decomposition, % (lipase [2]): 59%

[Cl][Fe][Cl] [FeCl2, iron (II) chloride]
Residual activity, % (lipase [1]; [10]): 36.7% | Effect of metal ions on the enzyme (in words) (lipase [1]): Deactivated

[Cl][Fe]([Cl])[Cl] [FeCl3, iron (III) chloride]
Activation and deactivation (in words) (lipase [4]): Almost no deactivation | Residual activity, % (lipase [1]; [10]): 33.0% | Effect of metal ions on the enzyme (in words) (lipase [1]): Deactivated | Activation and deactivation (in words) (lipase [5]): Inhibited

[Cl][Hg][Cl] [HgCl2, mercury (II) chloride]
Activation and deactivation (in words) (lipase [4]): Almost no deactivation | Residual activity, % (lipase [1]; [10]): 83.5% | Activation and deactivation (in words) (lipase [5]): Inhibited

CCCC(=O)OC [Methyl butyrate]
Substrate specificity (in words) (lipase [6]): little active | Relative rate of decomposition, % (lipase [2]): 23% | Substrate specificity (in words) (lipase [7]): inactive

CCCCCCCC/C=C\CCCCCCCC(=O)OC [Methyl oleate]
Relative rate of decomposition, % (lipase [2]): 87% | Activity of the enzyme for the decomposition of the substrate (in words) (lipase [2]; listed as methyl - oleate): good activity | Activity of the enzyme for the decomposition of the substrate (in words) (lipase [2]; listed as methyl oleate): Active | Substrate specificity (in words) (lipase [7]): inactive

[Cl-].[Cl-].[Mg+2] [MgCl2]
Residual activity, % (lipase [1]; [10]): 97.2%

[Cl][Mn][Cl] [MnCl2]
Residual activity, % (lipase [1]; [10]): 81.7%

[Cl][Ni][Cl] [NiCl2]
Residual activity, % (lipase [1]; [10]): 98.9%

[Cl][Pb][Cl] [PbCl2]
Residual activity, % (lipase [1]; [10]): 78.0%

CCCCCCCC/C=C\CCCCCCCC(=O)OCCOCC(OCCO)C1OCC(OCCO)C1OCCO (stereo not drawn) [Polyoxyethylene sorbitan monooleate]
Relative rate of decomposition, % (lipase [2]): 50% | Residual activity, % (lipase [3]): 115%

[Cl][Sn][Cl] [SnCl2]
Residual activity, % (lipase [1]; [10]): 79.8%

[Cl-].[Cl-].[Sr+2] [SrCl2]
Residual activity, % (lipase [1]; [10]): 92.7%

CC(=O)OCC(COC(C)=O)OC(C)=O [Triacetin]
Relative rate of decomposition, % (lipase [2]): 108% | Activity of the enzyme for the decomposition of the substrate (in words) (lipase [2]): highly active

CCCC(=O)OCC(COC(=O)CCC)OC(=O)CCC [Tributyrin]
Substrate specificity (in words) (lipase [6]): Active | Relative rate of decomposition, % (lipase [2]): 243% | Activity of the enzyme for the decomposition of the substrate (in words) (lipase [2]): highly active | Substrate specificity (in words) (lipase [7]): Active | Substrate specificity (in words) (lipase [8]): Active

[Cl-].[Cl-].[Zn+2] [ZnCl2, zinc chloride]
Residual activity, % (lipase [1]; [10]): 34.9% | Effect of metal ions on the enzyme (in words) (lipase [1]): Deactivated | Effect of metal ions on the enzyme (in words) (lipase [1]; listed as Zn^2+): deactivated; also recorded: deactivating effect

CCCCCCCCCCCC[N+](C)(C)C.[Br-] [n-Dodecyl trimethyl ammonium bromide]
Residual activity, % (lipase [3]): 46%

CCCCCCCCCCCCCCCC(=O)OCC(COC(=O)CCCCCCCCCCCCCCC)OC(=O)CCCCCCCCCCCCCCC [tri- palmitin]
Substrate specificity (in words) (lipase [9]): Active

CCCCCC(=O)OCC(COC(=O)CCCCC)OC(=O)CCCCC [tricaproin]
Substrate specificity (in words) (lipase [9]): Active

CCCCCCCCCCCCCC(=O)OCC(COC(=O)CCCCCCCCCCCCC)OC(=O)CCCCCCCCCCCCC [trimyristin]
Substrate specificity (in words) (lipase [6]): Active

KCl
Residual activity, % (lipase [1]; [10]): 98.0%

LiCl
Residual activity, % (lipase [1]; [10]): 97.5%

NaCl
Residual activity, % (lipase [1]; 1000 µM): 98.0%

Polyoxyethylene (10) octyl phenyl ether
Residual activity, % (lipase [3]): 105% | Effect of surface active agents on the enzyme (in words) (lipase [3]): somewhat increased

Polyoxyethylene (10) oleyl ether
Residual activity, % (lipase [3]): 55%

Sorbitan monolaurate [Sorbitan monolaurate (Span 20)]
Relative rate of decomposition, % (lipase [2]): 66%

Sorbitan monooleate [Sorbitan monooleate (Span 80)]
Relative rate of decomposition, % (lipase [2]): 36% | Residual activity, % (lipase [3]): 56%

copper sulfate
Activation and deactivation (in words) (lipase [5]): Inhibited
